Measurements taken from paper PMC6691826, “1D NMR WaterLOGSY as an efficient method for fragment-based lead discovery” (Journal of Enzyme Inhibition and Medicinal Chemistry, 2019).

Columns and labels:
Bcl-xL = biological target: Bcl-xL; parameters: method as in PMID 16420051; conditions: bound to Bcl-xL; cited from earlier work
[1] = biological target: T1, glycogen phosphorylase (GP) (Oryctolagus cuniculus, UniProt P00489); assay: Dissociation constant of fragment bound to GP; format: binding, rabbit; conditions: unpublished data
T1 sequence (P00489 1-843): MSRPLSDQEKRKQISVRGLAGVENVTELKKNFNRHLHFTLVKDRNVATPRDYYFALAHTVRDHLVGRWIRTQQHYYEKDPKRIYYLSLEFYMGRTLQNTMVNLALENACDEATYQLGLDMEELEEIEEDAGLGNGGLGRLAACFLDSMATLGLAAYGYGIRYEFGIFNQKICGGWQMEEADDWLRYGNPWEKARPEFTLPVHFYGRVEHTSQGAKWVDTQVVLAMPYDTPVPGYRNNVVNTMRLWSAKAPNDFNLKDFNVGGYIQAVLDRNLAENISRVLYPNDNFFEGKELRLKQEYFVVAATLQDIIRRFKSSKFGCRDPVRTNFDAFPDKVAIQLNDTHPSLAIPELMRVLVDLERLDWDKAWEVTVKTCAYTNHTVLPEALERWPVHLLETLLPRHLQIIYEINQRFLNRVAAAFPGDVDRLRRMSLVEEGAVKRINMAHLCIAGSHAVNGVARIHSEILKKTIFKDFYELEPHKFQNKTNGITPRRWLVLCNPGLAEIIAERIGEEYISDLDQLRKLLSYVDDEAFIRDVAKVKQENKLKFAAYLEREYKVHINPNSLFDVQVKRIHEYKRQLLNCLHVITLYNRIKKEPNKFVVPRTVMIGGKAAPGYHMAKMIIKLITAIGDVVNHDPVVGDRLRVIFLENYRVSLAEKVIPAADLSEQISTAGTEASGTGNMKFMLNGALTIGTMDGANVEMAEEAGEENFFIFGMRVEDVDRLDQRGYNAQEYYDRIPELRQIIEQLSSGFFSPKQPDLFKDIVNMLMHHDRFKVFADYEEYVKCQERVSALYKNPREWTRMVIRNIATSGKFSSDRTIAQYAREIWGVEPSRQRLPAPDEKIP

[2] = biological target: T2, N-terminal domain of HSP90 (Homo sapiens, UniProt P07900); assay: WaterLOGSY NMR epitope mapping, HSP90; format: binding; conditions: proton H1, bound to HSP90, 1.5 s mixing time, normalised
T2 construct: the N-terminal domain (9–236) of HSP-90 were produced and purified; made in house; host or cells: Escherichia coli
Method: (§1) NMR samples for STD experiments consisted of 400 µM fragment in 0.5% DMSO-d6 and 10% D2O (v/v) together with a protein concentration of 20 µM for peroxiredoxin and HSP90, 10 µM for Bcl-xL, 15 µM for Mcl-1, 2 µM for glycogen phosphorylase, and 5 µM for HSA.
(§2) Standard 1 D, STD, and WaterLOGSY NMR spectra were acquired at 20 °C with an Agilent Inova 600 MHz NMR spectrometer, equipped with a room temperature 5 mm triple-resonance inverse probe with z-axis field gradient and a Bruker 600 MHz NMR spectrometer, equipped with a Z-gradient cryoprobe.
(§3) WaterLOGSY mixing time was 1.5 s, and additional experiments were performed with 0.75 s and 0.25 s mixing time. Both STD and WaterLOGSY spectra were recorded for each sample. WaterLOGSY spectra in the absence of protein receptor were recorded with 400 µM compound. All the NMR experiments were performed at 293 K with excitation sculpting to suppress peaks from water. […] The STD factors were calculated according to the following equation: R=(ISTD/I1D)×100) were ISTD and I1D are the intensity of proton resonances of the STD and the 1 D proton spectra, respectively. […]
(§4) This is due to the WaterLOGSY mechanism that involves magnetisation transfer from bulk water. Therefore, we propose the following protocol to quantitatively evaluate the WaterLOGSY signals of the protons of a compound bound to its receptor. […]

[3] = biological target: N-terminal domain (9–236) of HSP90; parameters: method as in PMID 20718493; conditions: bound to HSP90; cited from earlier work
[4] = biological target: T3, human serum albumin (HSA) (Homo sapiens, UniProt P02768); assay: Dissociation constant of fragment bound to HSA; format: binding
T3 construct: purchased Sigma A3782

[5] = biological target: T3, human serum albumin (HSA); assay: WaterLOGSY NMR epitope mapping, HSA; format: binding; conditions: all protons, bound to HSA, 1.5 s mixing time, normalised
Method: as §1, §2, §3, §4

T3 sequence (P02768 25-609): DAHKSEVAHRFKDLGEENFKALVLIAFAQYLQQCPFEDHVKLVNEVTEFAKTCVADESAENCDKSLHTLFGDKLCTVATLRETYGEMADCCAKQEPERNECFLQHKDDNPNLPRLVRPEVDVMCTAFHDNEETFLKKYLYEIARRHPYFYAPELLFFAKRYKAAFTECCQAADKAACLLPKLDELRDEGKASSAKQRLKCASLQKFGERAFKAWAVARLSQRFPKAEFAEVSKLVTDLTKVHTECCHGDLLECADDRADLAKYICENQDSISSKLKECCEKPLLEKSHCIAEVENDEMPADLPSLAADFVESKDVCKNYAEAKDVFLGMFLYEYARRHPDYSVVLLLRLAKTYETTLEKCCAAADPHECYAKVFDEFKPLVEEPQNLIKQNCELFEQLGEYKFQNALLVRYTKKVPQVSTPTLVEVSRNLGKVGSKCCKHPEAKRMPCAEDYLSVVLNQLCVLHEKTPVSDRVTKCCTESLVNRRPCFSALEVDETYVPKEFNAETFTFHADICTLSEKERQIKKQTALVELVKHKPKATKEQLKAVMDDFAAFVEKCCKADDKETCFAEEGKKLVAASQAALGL

O=C(O)c1ccc(-c2ccc(F)cc2)cc1 [Compound 5, 4′-fluoro-[1,1′-biphenyl]-4-carboxylic acid]
Kd (Bcl-xL): 300 µM

O=C(O)c1ccc(Oc2ccccc2)cc1 [Compound 6, 4-phenoxybenzoic acid]
Kd [1]: > 1000 µM

CCN(CC)C(=O)c1ccc(O)c(OC)c1 [Compound 4, N,N-diethylvanillamide]
WLOGSY factor [2]: 10%
Kd [3]: 790 µM

Cc1ccc(O)c(O)c1 [Compound 1, 4-methylcatechol]
Kd [4]: > 1000 µM
WLOGSY factor [5]: 100%
